Source: patent US20060281763A1, “Carboxamide inhibitors of TGFbeta” (priority 2005, published 2006)

Target: T1, TGFβ R1 (Homo sapiens, UniProt P36897)
T1 sequence (P36897 34-503): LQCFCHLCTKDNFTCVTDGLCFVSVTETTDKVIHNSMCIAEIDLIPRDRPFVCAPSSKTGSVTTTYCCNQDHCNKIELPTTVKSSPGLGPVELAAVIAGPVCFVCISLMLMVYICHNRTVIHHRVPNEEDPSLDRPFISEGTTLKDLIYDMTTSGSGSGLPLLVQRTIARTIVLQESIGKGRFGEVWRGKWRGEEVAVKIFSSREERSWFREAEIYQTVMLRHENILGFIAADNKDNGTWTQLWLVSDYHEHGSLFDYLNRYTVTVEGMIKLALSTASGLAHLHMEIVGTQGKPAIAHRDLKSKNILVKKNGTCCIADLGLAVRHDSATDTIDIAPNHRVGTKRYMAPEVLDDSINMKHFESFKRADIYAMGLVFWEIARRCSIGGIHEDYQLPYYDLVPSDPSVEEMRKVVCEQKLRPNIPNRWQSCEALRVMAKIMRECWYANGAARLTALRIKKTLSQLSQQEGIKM
Test: TGFβ R1 autophosphorylation protocol (33P-ATP, phosphocellulose filter plate)
Type: biochemical
Conditions: 10 uM ATP, 170 nM TGFβ R1, 20 minutes at room temperature, read-out: IC50 for Kinase Inhibition
Method: The compounds of the invention were tested for their ability to inhibit TGFβ by a TGFβ R^1 autophosphorylation protocol. This was conducted as follows: Compound dilutions and reagents were prepared fresh daily. Compounds were diluted from DMSO stock solutions to 2 times the desired assay concentration, keeping final DMSO concentration in the assay less than or equal to 1%. TGFβ R1 was diluted to 4 times the desired assay concentration in buffer+DTT. ATP was diluted into 4× reaction buffer, and gamma-^33P-ATP was added at 60 uCi/mL.
The assay was performed by adding 10 ul of the enzyme to 20 ul of the compound solution. The reaction was initiated by the addition of 10 ul of ATP mix. Final assay conditions included 10 uM ATP, 170 nM TGFβ R1, and […] in 20 mM MOPS, pH7. The reactions were incubated at room temperature for 20 minutes. The reactions were stopped by transferring 23 ul of reaction mixture onto a phosphocellulose 96-well filter plate, which had been pre-wetted with 15 ul of 0.25M H3PO4 per well. After 5 minutes, the wells were washed 4× with 75 mM H3PO4 and once with 95% ethanol. The plate was dried, scintillation cocktail was added to each well, and the wells were counted in a Packard TopCount microplate scintillation counter.

IC50 | Compound
890 nM | COc1cnc(-c2cc(Cl)ccc2F)nc1Nc1ccncc1C(=O)NCCCNC(=O)NC1CCCCC1 [Compound 64, 4-[2-(5-Chloro-2-fluoro-phenyl)-5-methoxy-pyrimidin-4-ylamino]-N-[3-(3-cyclohexyl-ureido)-propyl]-nicotinamide]
58 nM | COc1cnc(-c2cc(Cl)ccc2F)nc1Nc1ccncc1C(=O)NCCNC(=O)COC1O[C@H](CO)[C@H](O)[C@H](O)[C@H]1O (stereo partly shown) [Compound 159, 4-[2-(5-Chloro-2-fluoro-phenyl)-5-methoxy-pyrimidin-4-ylamino]-N-{2-[2-(3,4,5-trihydroxy-6-hydroxymethyl-tetrahydro-pyran-2-yloxy)-acetylamino]-ethyl}-nicotinamide]
200 nM | COc1cnc(-c2cc(Cl)ccc2F)nc1Nc1ccncc1C(=O)NCCC(N)=O [Compound 70, N-(2-Carbamoyl-ethyl)-4-[2-(5-choro-2-fluoro-phenyl)-5-methoxy-pyrimidin-4-ylamino]-nicotinamide]
38 nM | COc1cnc(-c2cc(Cl)ccc2F)nc1Nc1ccncc1C(=O)NCC(C)(C)N [Compound 130, N-(2-Amino-2-methyl-propyl)-4-[2-(5-chloro-2-fluoro-phenyl)-5-methoxy-pyrimidin-4-ylamino]-nicotioamide]
47 nM | COc1cnc(-c2cc(Cl)ccc2F)nc1Nc1ccncc1C(=O)NCCCN(C(=O)CC1O[C@H](CO)[C@@H](O)[C@H](O)[C@H]1O)C(C)C (stereo partly shown) [Compound 149, 4-[2-(5-Chloro-2-fluoro-phenyl)-5-methoxy-pyrimidin-4-ylamino]-N-(3-[isopropyl-[2-(3,4,5-trihydroxy-6-hydroxymethyl-tetrahydro-pyran-2-yl)-acetyl]-amino]-propyl)-nicotinamide]
330 nM | COc1cnc(-c2cc(Cl)ccc2F)nc1Nc1ccncc1C(=O)NCCCN1CC[C@H](O)C1 [Compound 109, 4-[2-(5-Chloro-2-fluoro-phenyl)-5-methoxy-pyrimidin-4-ylamino]-N-[3-(3-hydroxy-pyrolidin-1-yl)-propyl]-nicotinamide]
7 nM | COc1cnc(-c2cc(Cl)ccc2F)nc1Nc1ccncc1C(=O)NCCCNCCO[C@H]1O[C@H](CO)[C@H](O)[C@H](O)[C@H]1O [Compound 139, 4-[2-(5-Chloro-2-fluoro-phenyl)-5-methoxy-pyrimidin-4-ylamino]-N-{3-[2-(3,4,5-trihydroxy-6-hydroxymethyl-tetrahydro-pyran-2-yloxy)-ethylamino]-propyl}-nicotinamide]
30 nM | COc1cnc(-c2cc(Cl)ccc2F)nc1Nc1ccncc1C(=O)NCCCN [Compound 100, N-(3-Amino-propyl)-4-[2-(5-chloro-2-fluoro-phenyl)-5-methoxy-pyrimidin-4-ylamino]-nicotinamide]
1340 nM | COc1cnc(-c2cc(Cl)ccc2F)nc1Nc1ccncc1C(=O)NCCCNC(C)=O [Compound 94, N-(3-Acetylamino-propyl)-4-[2-(5-chloro-2-fluoro-phenyl)-5-methoxy-pyrimidin-4-ylamino]-nicotinamide]
190 nM | COC(=O)[C@H]1C[C@@H](NC(=O)c2cnccc2Nc2nc(-c3cc(Cl)ccc3F)ncc2OC)CN1 [Compound 89, 4-({4-[2-(5-Chloro-2-fluoro-phenyl)-5-methoxy-pyrimidin-4-ylamino]-pyridine-3-carbonyl}-amino)-pyrrolidine-2-carboxylic acid methyl ester]
2500 nM | O=C(NC1CC1)c1cnccc1Nc1nc(-c2cc(Cl)ccc2F)ncc1Br [Compound 108, 4-[5-Bromo-2-(5-chloro-2-fluoro-phenyl)-pyrimidin-4-ylamino]-N-cyclopropyl-nicotinamide]
570 nM | COc1cnc(-c2cc(Cl)ccc2F)nc1Nc1ccncc1C(=O)NCCNC(=O)NC(C)C [Compound 80, 4-[2-(5-Chloro-2-fluoro-phenyl)-5-methoxy-pyrimidin-4-ylamino]-N-[2-(3-isopropyl-ureido)-ethyl]-nicotinamide]
4810 nM | COc1cnc(-c2cc(Cl)ccc2F)nc1Nc1ccncc1C(=O)N[C@@H]1C[C@H](C(=O)N(C)C)N(C(=O)OC(C)(C)C)C1 [Compound 106, 4-({4-[2-(5-Chloro-2-fluoro-phenyl)-5-methoxy-pyrimidin-4-ylamino]-pyridine-3-carbonyl}-amino)-2-dimethyl carbamoyl-pyrrolidine-1-carboxylic acid tert-butyl ester]

Same assay, conditions: 10 uM ATP, 170 nM TGFβ R1, room temperature 20 minutes, read-out: IC50 for Kinase Inhibition

IC50 | Compound
6 nM | COc1cnc(-c2cc(Cl)ccc2F)nc1Nc1ccncc1C(=O)NCCNCC[C@@H]1OC[C@@H](O)[C@H](O)[C@H]1O [Compound 170, 4-[2-(5-Chloro-2-fluoro-phenyl)-5-methoxy-pyrimidin-4-ylamino]-N-{2-[2-(3,4,5-trihydroxy-tetrahydro-pyran-2-yl)-ethylamino]-ethyl}-nicotinamide]
6 nM | COc1cnc(-c2cc(Cl)ccc2F)nc1Nc1ccncc1C(=O)NCCNCC[C@H]1C[C@H](O)[C@@H](CO)O1 [Compound 173, 4-[2-(5-Chloro-2-fluoro-phenyl)-5-methoxy-pyrimidin-4-ylamino]-N-{2-[2-(4-hydroxy-5-hydroxymethyl-tetrahydro-furan-2-yl)-ethylamino]-ethyl}-nicotinamide]
21 nM | CC(C)c1cnc(-c2cc(Cl)ccc2F)nc1Nc1ccncc1C(=O)NCCCN1CCCC[C@H]1C(=O)N1CCCC1 [Compound 183, 4-[2-(5-Chloro-2-fluoro-phenyl)-5-isopropyl-pyrimidin-4-ylamino]-N-{3-[2-(pyrrolidine-1-carbonyl)-piperidin-1-yl]-propyl}-nicotinamide]
5 nM | CC(C)c1cnc(-c2cc(Cl)ccc2F)nc1Nc1ccncc1C(=O)NC1CC1CO (stereo not shown) [Compound 179, 4-[2-(5-Chloro-2-fluoro-phenyl)-5-isopropyl-pyrimidin-4-ylamino]-N-(2-hydroxymethyl-cyclopropyl)-nicotinamide]
11 nM | CNC(=O)[C@H]1CCCN1CCCNC(=O)c1cnccc1Nc1nc(-c2cc(Cl)ccc2F)ncc1C(C)C [Compound 182, 4-[2-(5-Chloro-2-fluoro-phenyl)-5-isopropyl-pyrimidin-4-ylamino]-N-[3-(2-methylcarbamoyl-pyrrolidin-1-yl)-propyl]-nicotinamide]
12 nM | CCOCCCNC(=O)c1cnccc1Nc1nc(-c2cc(Cl)ccc2F)ncc1C(C)C [Compound 187, 4-[2-(5-Chloro-2-fluoro-phenyl)-5-isopropyl-pyrimidin-4-ylamino]-N-(3-ethoxy-propyl)-nicotinamide]
9 nM | COc1cnc(-c2cc(Cl)ccc2F)nc1Nc1ccncc1C(=O)NC1CC1CO (stereo not shown) [Compound 160, 4-[2-(5-Chloro-2-fluoro-phenyl)-5-methoxy-pyrimidin-4-ylamino]-N-(2-hydroxymethyl-cyclopropyl)-nicotinamide]
31 nM | COC(=O)C1CCCN1CCCNC(=O)c1cnccc1Nc1nc(-c2cc(Cl)ccc2F)ncc1OC (stereo not shown) [Compound 175, 1-[3-({4-[2-(5-Chloro-2-fluoro-phenyl)-5-methoxy-pyrimidin-4-ylamino]-pyridine-3-carbonyl}-amino)-propyl]-pyrrolidine-2-carboxylic acid methyl ester]

Compound | IC50
CCOP(=O)(OCC)O[C@@H](C)CNC(=O)c1cnccc1Nc1nc(-c2cc(Cl)ccc2F)ncc1C(C)C [Compound 233, Phosphoric acid 2-{(4-[2-(5-chloro-2-fluoro-phenyl)-5-isopropyl-pyrimidin-4-ylamino]-pyridine-3-carbonyl}-amino)-1-methyl-ethyl ester diethyl ester] | 280 nM
